The subject of one data set is narcotised guinea pigs. Briefly: Blood pressure experiments on guinea pigs, i.v. The note with it: for blood pressure before: before administration. It counts as in vivo, guinea pig.
In data set [1] the test system is isolated guinea pig hearts. Description: Experiments on Langendorff hearts (coronary flowthrough, inotropism, frequency). Particulars: Cavia porcellus, read-out: flowthrough, percentage change with regard to the initial value.
Description: After reaching the stationary state in the 30th minute, the hearts were each perfused with 50 ml. tyrode solution with a content of test substance of, in each case, 25 μg./ml. Each test substance was tested on 3-6 hearts.
In each case, there was measured the inotropism, the flowthrough and the frequency, whereby the values given in Table I are average values of the percentage changes in comparison with the initial values.
Data set [2] can be described thus: Acute toxicity, intravenous, mice. It counts as in vivo. Particulars: mouse, in vivo; intravenous, within 24 hours; read-out: Evaluated LD50-range.
A further data set concerns female NMRI-albino mice. Description: Acute toxicity, intravenous, mice. It counts as in vivo. The note with it: within 24 hours.
Another data set deals with mongrel cats. Briefly: Inotropic and heart-circulatory effectiveness on narcotised cats, intravenous. It is filed as in vivo, cat. Particulars: 6 animals; for blood pressure before / dp/dt (inotropism) before / heart frequency before: before administration.

Structures are written as SMILES.

In the case of `CCN[C@H]1CO[C@H]2[C@@H]1OC[C@@H]2O[N+](=O)[O-]` [10 b], in the data set with narcotised guinea pigs (0.25 mg/kg i.v.), the blood pressure after is recorded as 37.25 ± 2.06 mm.Hg, the “blood pressure Δ” value is -6.00 mm.Hg and the blood pressure before was found to be 43.25 ± 2.21 mm.Hg. In the data set with narcotised guinea pigs (1.00 mg/kg i.v.), the blood pressure after is 32.00 ± 2.04 mm.Hg and the “blood pressure Δ” value is recorded as -11.25 mm.Hg. For the same compound, in the data set with narcotised guinea pigs (2.50 mg/kg i.v.), the blood pressure after came out at 27.25 ± 1.60 mm.Hg and the “blood pressure Δ” value is reported as -15.50 mm.Hg. Further, the activation at 25 µg/mL in data set [1] amounted to 25.9%.

By LD50 is commonly meant the dose expected to kill half of the subjects tested. `CN(C)[C@H]1CO[C@H]2[C@@H]1OC[C@@H]2O[N+](=O)[O-]` [12 b]: in data set [2], the LD50 at 24 h was more than 200 mg/kg. In the data set on female NMRI-albino mice (200 mg/kg i.v.), the Frequency of death is given as 0/3. In addition, in data set [1], the activation at 25 µg/mL worked out at 16.2%.

For the compound `CCN(CC)[C@H]1CO[C@H]2[C@@H]1OC[C@@H]2O[N+](=O)[O-]` [13 b], the LD50 at 24 h in data set [2] lay in the range of 100 to 200 mg/kg. In addition, the Frequency of death is listed as 0/3 with female NMRI-albino mice (100 mg/kg i.v.) and 6/6 in the data set on female NMRI-albino mice (200 mg/kg i.v.). For the same compound, the activation at 25 µg/mL in data set [1] was found to be 9.05%.

Take `CC(C)(C)C(=O)N[C@H]1CO[C@H]2[C@@H]1OC[C@@H]2O[N+](=O)[O-]` [Example 5, 5-Pivaloylamino-5-desoxy-1.4;3.6-dianhydro-L-iditol 2-nitrate]: in the data set with narcotised guinea pigs (0.25 mg/kg i.v.), the blood pressure after turned out to be 54.00 ± 2.52 mm.Hg, the “blood pressure Δ” value was -10.50 mm.Hg and the blood pressure before came to 64.50 ± 2.75 mm.Hg. Besides, in the data set on narcotised guinea pigs (1.00 mg/kg i.v.), the blood pressure after worked out at 40.50 ± 3.66 mm.Hg and the “blood pressure Δ” value is -22.75 mm.Hg. Moreover, in the data set with narcotised guinea pigs (2.50 mg/kg i.v.), the blood pressure after turned out to be 30.75 ± 8.60 mm.Hg and the “blood pressure Δ” value was -31.75 mm.Hg. Further, the “blood pressure-lowering effectiveness (in words)” value with narcotised guinea pigs (i.v.) was “stronger action than ISDN”. In data set [1], the activation at 25 µg/mL came out at 21.2%.

As for `C=CCc1ccccc1OCC(O)CN[C@H]1CO[C@H]2[C@@H]1OC[C@@H]2O[N+](=O)[O-]` (stereo partly drawn) [Example 49, 5-[2-Hydroxy-3-(2-allylphenoxy)-propylamino]-5-desoxy-1.4;3.6-dianhydro-L-iditol 2-nitrate], in the data set with narcotised guinea pigs (0.25 mg/kg i.v.), the blood pressure after worked out at 43.50 ± 3.38 mm.Hg, the “blood pressure Δ” value was -2.25 mm.Hg and the blood pressure before was 45.75 ± 2.53 mm.Hg. In the data set with narcotised guinea pigs (1.00 mg/kg i.v.), the blood pressure after is recorded as 30.25 ± 1.70 mm.Hg and the “blood pressure Δ” value is given as -12.75 mm.Hg. For the same compound, in the data set with narcotised guinea pigs (2.50 mg/kg i.v.), the blood pressure after is reported as 20.25 ± 1.03 mm.Hg and the “blood pressure Δ” value is -22.50 mm.Hg. In the data set on mongrel cats (0.25 mg/kg i.v.), the blood pressure before came out at 116.6 mm.Hg, the “dp/dt (inotropism) before” value stood at 7840 mm.Hg/sec, the heart frequency before was 200.4 min⁻¹ and the “blood pressure WD” value came to 2.8 min. In the data set on mongrel cats (0.25 mg/kg i.v.), the blood pressure after turned out to be 113.6 mm.Hg, the “blood pressure Δ” value is recorded as -3.0 mm.Hg, the “dp/dt (inotropism) after” value is 7360 mm.Hg/sec and the “dp/dt (inotropism) Δ” value is on record as -480 mm.Hg/sec. In addition, in the data set on mongrel cats (0.25 mg/kg i.v.), the “dp/dt WD” value is on record as 3.1 min, the heart frequency after was 201.2 min⁻¹ and the “heart frequency Δ” value was “+0.8 min^-1”. Besides, in the data set with mongrel cats (0.50 mg/kg i.v.), the “blood pressure WD” value was 3.7 min, the blood pressure after was determined as 110.6 mm.Hg, the “blood pressure Δ” value is recorded as -9.2 mm.Hg and the “dp/dt (inotropism) after” value is 6540 mm.Hg/sec. For the same compound, in the data set with mongrel cats (0.50 mg/kg i.v.), the “dp/dt (inotropism) Δ” value is -1060 mm.Hg/sec, the “dp/dt WD” value came out at 14.0 min, the heart frequency after is 202.0 min⁻¹ and the “heart frequency Δ” value is “+2.0 min^-1”. In the data set with mongrel cats (1.00 mg/kg i.v.), the “blood pressure WD” value worked out at 11.6 min, the blood pressure after turned out to be 105.8 mm.Hg, the “blood pressure Δ” value is listed as -16.8 mm.Hg and the “dp/dt (inotropism) after” value is on record as 4680 mm.Hg/sec. For the same compound, in the data set on mongrel cats (1.00 mg/kg i.v.), the “dp/dt (inotropism) Δ” value is reported as -2260 mm.Hg/sec, the “dp/dt WD” value is listed as more than 40 min, the heart frequency after amounted to 188.4 min⁻¹ and the “heart frequency Δ” value is -5.6 min⁻¹. In addition, in the data set on mongrel cats (2.50 mg/kg i.v.), the “blood pressure WD” value was more than 10 min, the blood pressure after worked out at 86.6 mm.Hg, the “blood pressure Δ” value is given as -35.0 mm.Hg and the “dp/dt (inotropism) after” value worked out at 3780 mm.Hg/sec. Moreover, in the data set on mongrel cats (2.50 mg/kg i.v.), the “dp/dt (inotropism) Δ” value is reported as -2900 mm.Hg/sec, the “dp/dt WD” value is more than 10 min, the heart frequency after stood at 170.4 min⁻¹ and the “heart frequency Δ” value was -20.8 min⁻¹. In addition, in data set [1], the activation at 25 µg/mL turned out to be 191%.

Consider `O=[N+]([O-])O[C@H]1CO[C@H]2[C@@H]1OC[C@@H]2NCC(O)COc1cccc2ccccc12` (stereo partly drawn) [Example 54, 5-[2-Hydroxy-3-(1-naphthyloxy)-propylamino]-5-desoxy-1.4;3.6-dianhydro-L-iditol 2-nitrate], for which, in the data set with narcotised guinea pigs (0.25 mg/kg i.v.), the blood pressure after is recorded as 62.25 ± 8.05 mm.Hg, the “blood pressure Δ” value is -4.75 mm.Hg and the blood pressure before amounted to 67.00 ± 4.51 mm.Hg. Further, in the data set with narcotised guinea pigs (1.00 mg/kg i.v.), the blood pressure after was determined as 56.50 ± 4.97 mm.Hg and the “blood pressure Δ” value was -10.75 mm.Hg. Also, in the data set with narcotised guinea pigs (2.50 mg/kg i.v.), the blood pressure after stood at 44.75 ± 4.50 mm.Hg and the “blood pressure Δ” value is given as -23.75 mm.Hg. In addition, in the data set with mongrel cats (0.25 mg/kg i.v.), the blood pressure before was determined as 115.2 mm.Hg, the “dp/dt (inotropism) before” value was found to be 8783 mm.Hg/sec, the heart frequency before was 188.7 min⁻¹ and the “blood pressure WD” value was determined as 1.9 min. Besides, in the data set on mongrel cats (0.25 mg/kg i.v.), the blood pressure after is reported as 103.8 mm.Hg, the “blood pressure Δ” value is recorded as -11.4 mm.Hg, the “dp/dt (inotropism) after” value amounted to 8150 mm.Hg/sec and the “dp/dt (inotropism) Δ” value is -633 mm.Hg/sec. Besides, in the data set on mongrel cats (0.25 mg/kg i.v.), the “dp/dt WD” value turned out to be 3.9 min, the heart frequency after is 187.7 min⁻¹ and the “heart frequency Δ” value was -1.0 min⁻¹. In addition, in the data set on mongrel cats (0.50 mg/kg i.v.), the “blood pressure WD” value is given as 3.2 min, the blood pressure after is 101.8 mm.Hg, the “blood pressure Δ” value was -15.9 mm.Hg and the “dp/dt (inotropism) after” value is listed as 6833 mm.Hg/sec. Also, in the data set on mongrel cats (0.50 mg/kg i.v.), the “dp/dt (inotropism) Δ” value is recorded as -1934 mm.Hg/sec, the “dp/dt WD” value came out at 7.6 min, the heart frequency after was determined as 186.7 min⁻¹ and the “heart frequency Δ” value was -0.7 min⁻¹. In the data set on mongrel cats (1.00 mg/kg i.v.), the “blood pressure WD” value is 5.6 min, the blood pressure after was 91.0 mm.Hg, the “blood pressure Δ” value was -27.8 mm.Hg and the “dp/dt (inotropism) after” value is given as 5050 mm.Hg/sec. Further, in the data set on mongrel cats (1.00 mg/kg i.v.), the “dp/dt (inotropism) Δ” value was -3283 mm.Hg/sec, the “dp/dt WD” value was 15.2 min, the heart frequency after worked out at 172.0 min⁻¹ and the “heart frequency Δ” value was -12.0 min⁻¹. Moreover, in the data set on mongrel cats (2.50 mg/kg i.v.), the “blood pressure WD” value is on record as 6.4 min, the blood pressure after amounted to 78.5 mm.Hg, the “blood pressure Δ” value is on record as -44.8 mm.Hg and the “dp/dt (inotropism) after” value is 2817 mm.Hg/sec. Also, in the data set on mongrel cats (2.50 mg/kg i.v.), the “dp/dt (inotropism) Δ” value is on record as -5183 mm.Hg/sec, the “dp/dt WD” value is more than 10 min, the heart frequency after turned out to be 158.3 min⁻¹ and the “heart frequency Δ” value is -20.0 min⁻¹. In data set [1], the activation at 25 µg/mL was 274%.

In the case of `O=[N+]([O-])O[C@H]1CO[C@H]2[C@@H]1OC[C@H]2NCC(O)COc1cccc2ccccc12` (stereo partly drawn) [Example 55, 5-[2-Hydroxy-3-(1-naphthyloxy)-propylamino]-5-desoxy-1.4;3.6-dianhydro-D-glucitol 2-nitrate], in the data set on mongrel cats (0.25 mg/kg i.v.), the blood pressure before is recorded as 113.8 mm.Hg, the “dp/dt (inotropism) before” value was 5633 mm.Hg/sec, the heart frequency before was 161.7 min⁻¹ and the “blood pressure WD” value stood at 4.8 min. Moreover, in the data set on mongrel cats (0.25 mg/kg i.v.), the blood pressure after was determined as 107.0 mm.Hg, the “blood pressure Δ” value is reported as -6.8 mm.Hg, the “dp/dt (inotropism) after” value is listed as 5200 mm.Hg/sec and the “dp/dt (inotropism) Δ” value is listed as -433 mm.Hg/sec. Further, in the data set on mongrel cats (0.25 mg/kg i.v.), the “dp/dt WD” value was 4.2 min, the heart frequency after was determined as 164.7 min⁻¹ and the “heart frequency Δ” value is reported as “+3.0 min^-1”. For the same compound, in the data set on mongrel cats (0.50 mg/kg i.v.), the “blood pressure WD” value was 2.8 min, the blood pressure after came out at 98.8 mm.Hg, the “blood pressure Δ” value is given as -12.7 mm.Hg and the “dp/dt (inotropism) after” value turned out to be 4667 mm.Hg/sec. In the data set with mongrel cats (0.50 mg/kg i.v.), the “dp/dt (inotropism) Δ” value is reported as -533 mm.Hg/sec, the “dp/dt WD” value was 5.2 min, the heart frequency after was 157.3 min⁻¹ and the “heart frequency Δ” value is reported as “+2.0 min^-1”. In the data set with mongrel cats (1.00 mg/kg i.v.), the “blood pressure WD” value came out at 5.2 min, the blood pressure after was determined as 96.8 mm.Hg, the “blood pressure Δ” value is reported as -18.2 mm.Hg and the “dp/dt (inotropism) after” value is on record as 4000 mm.Hg/sec. Besides, in the data set with mongrel cats (1.00 mg/kg i.v.), the “dp/dt (inotropism) Δ” value is -1117 mm.Hg/sec, the “dp/dt WD” value came to 8.9 min, the heart frequency after came to 154.0 min⁻¹ and the “heart frequency Δ” value was -1.3 min⁻¹. Moreover, in the data set with mongrel cats (2.50 mg/kg i.v.), the “blood pressure WD” value amounted to 6.3 min, the blood pressure after was determined as 94.3 mm.Hg, the “blood pressure Δ” value is recorded as -26.0 mm.Hg and the “dp/dt (inotropism) after” value turned out to be 3517 mm.Hg/sec. Further, in the data set with mongrel cats (2.50 mg/kg i.v.), the “dp/dt (inotropism) Δ” value is reported as -1266 mm.Hg/sec, the “dp/dt WD” value is listed as more than 7.8 min, the heart frequency after amounted to 148.0 min⁻¹ and the “heart frequency Δ” value worked out at 0 min⁻¹. The activation at 25 µg/mL in data set [1] was determined as 203%.

For `O=[N+]([O-])O[C@@H]1CO[C@H]2[C@@H]1OC[C@@H]2O` [ISMN, 1.4;3.6-dianhydro-D-glucitol 2-nitrate, reference compound], the results for the “blood pressure Δ” value in the data set with narcotised guinea pigs (0.25 mg/kg i.v.), in the data set on narcotised guinea pigs (1.00 mg/kg i.v.) and with narcotised guinea pigs (2.50 mg/kg i.v.) were -3.70 mm.Hg, -6.30 mm.Hg and -10.90 mm.Hg, respectively. Besides, the activation at 25 µg/mL in data set [1] was 9.11%.

Source of the values: patent US4363805A, “Aminodesoxy-1.4;3.6-dianhydrohexitol nitrates and pharmaceutical composition” (Firma Willmar Schwabe, priority 1980, dated 1982).
